In patent US9067918B2, “Crystalline forms of 2-(2-methylamino-pyrimidin-4-yl)-1H-indole-5-carboxylic acid [ (S)-1-carbamoyl-2-(phenyl-pyrimidin-2-yl-amino)-ethyl ]-amide” (Sanofi, priority 2011, dated 2015):

Tests used:
Type in all cases: physicochemical
[1] = Determination of solubility in a mixture of acetone and water (4:1, by volume); details: acetone/water 4:1 by volume
Experimental: For the determination of the solubility in a mixture of acetone and water (4:1, by volume), samples of 0.5 mg to 50 mg of the test substances were suspended in a defined amount of the solvent (800 mg to 1200 mg) in screw cap vials with a magnetic stirring bar, which were placed in a temperature-controlled multiple stirring device equipped for transmission measurement (Avantium Crystal 16). With stirring at 700 rpm, the vials were cooled from room temperature to 0° C. and then heated to 60° C. with a heating rate of 3° C./h, kept at 60° C. for 2 h and cooled again to 0° C. with a cooling rate of 3° C./h. By means of transmission measurement it was determined whether the sample was dissolved (100% transmission), or crystals were present. For polymorph 1, polymorph 2, hydrate 1 and hydrate 2 of compound I the following solubilities in a mixture of acetone and water (4:1, by volume) were determined.

Thermogravimetry (TG) = details: for TG weight loss: until the melting point
Experimental: Thermogravimetric analyses were performed with a METTLER TGA851e instrument. 100 μl Al-crucibles with sealed lid and hole were used and the measurements performed in a nitrogen gas flow of 50 ml/min. The measured data were evaluated with the software STARe V8.10. TG measurements with infra-red (IR) spectroscopic analysis of volatiles were performed with a METTLER TGA851e instrument as described, which was coupled to a Thermo-Nicolet 380 FT-IR spectrometer equipped with a cell for gas phase measurements. The measured IR spectra were evaluated using the software OMNIC V.7.3. In the TG analyses of polymorph 1 and polymorph 2 of compound I until the melting point, insignificant weight losses of 0.2% and 0.7%, respectively, were observed. In the TG analysis of hydrate 1 of compound I, a gradual weight loss of 6.4% was observed between room temperature and 120° C. […] The observed weight loss corresponds to about 1.9 mol of water per mol of 2-(2-methylamino-pyrimidin-4-yl)-1H-indole-5-carboxylic acid [(S)-1-carbamoyl-2-(phenyl-pyrimidin-2-yl-amino)-ethyl]-amide. In the TG FT-IR analysis of hydrate 2 of compound I, a weight loss of 17-18% of water mainly in two steps was observed between room temperature and 140° C., which corresponds to about 6 mol of water per mol of 2-(2-methylamino-pyrimidin-4-yl)-1H-indole-5-carboxylic acid [(S)-1-carbamoyl-2-(phenyl-pyrimidin-2-yl-amino)-ethyl]-amide.

[2] = Dynamic vapor sorption (DVS), determination of hygroscopicity; details: for hygroscopicity, water uptake: at a high relative humidity of 80%; for weight increase in sorption step: 25° C.
Experimental: For the determination of the hygroscopicity, moisture sorption/desorption isotherms were recorded on a Surface Measurement Systems DVS-1 instrument. […] The data were evaluated with the software DVSWin V.2.15. In the DVS analysis of polymorph 1 and polymorph 2 of compound I, in the sorption steps of the two cycles the following weight increases were observed.

Solubility (qualitative) = details: qualitative statement; for solubility compared with polymorph 1: solvent not stated
[3] = Maturation experiments (slurry conversion), relative stability of crystalline forms
Experimental: By maturation experiments (slurry conversion) at 20° C. the relative stability of polymorphs 1 and 2 and hydrate 1 was investigated.
A polymorph mixture of 81 mg (Mixture of Polymorph 1 and Polymorph 2), 83 mg of Polymorph 1 and 60 mg of hydrate 1 was prepared. The mixture was subjected to XRPD analysis to confirm the presence of all three polymorphs and then distributed into five capillaries. These samples were kept in suspension at 20° C. for five days. After X-ray powder diffraction measurement of the suspensions these were dried over night at 40° C. and <100 mbar and again subjected to X-ray diffraction. Maturation experiments (a) to (e) were performed under the specified conditions, starting with the polymorph mixture described above.

[4] = relative humidity 40%, first value (cycle 1)
[5] = relative humidity 40%, second value (cycle 2)
[6] = relative humidity 60%, first value (cycle 1)
[7] = relative humidity 60%, second value (cycle 2)
[8] = relative humidity 80%, first value (cycle 1)
[9] = relative humidity 80%, second value (cycle 2)
[10] = relative humidity 95%, first value (cycle 1)
[11] = relative humidity 95%, second value (cycle 2)

| SMILES | hygroscopicity, water uptake [2] | weight increase in sorption step [2, 4] | weight increase in sorption step [2, 5] | weight increase in sorption step [2, 6] | weight increase in sorption step [2, 7] | weight increase in sorption step [2, 8] | weight increase in sorption step [2, 9] | weight increase in sorption step [2, 10] [%] | weight increase in sorption step [2, 11] [%] | TG weight loss (Thermogravimetry (TG)) [%] | solubility compared with polymorph 1 (Solubility (qualitative)) | also measured |
| --- | --- | --- | --- | --- | --- | --- | --- | --- | --- | --- | --- | --- |
| CNc1nccc(-c2cc3cc(C(=O)N[C@@H](CN(c4ccccc4)c4ncccn4)C(N)=O)ccc3[nH]2)n1 [Hydrate 2, 2-(2-methylamino-pyrimidin-4-yl)-1H-indole-5-carboxylic acid [(S)-1-carbamoyl-2-(phenyl-pyrimidin-2-yl-amino)-ethyl]-amide hexahydrate] | – | – | – | – | – | – | – | – | – | – | – | Solubility [g in 100 g of solvent] ([1]; 36.8° C.): 0.50 g in 100 g of solvent; Solubility [g in 100 g of solvent] ([1]; 46.1° C.): 1.02 g in 100 g of solvent; Solubility [g in 100 g of solvent] ([1]; 55.9° C.): 2.61 g in 100 g of solvent; TG weight loss (water) (Thermogravimetry (TG); between room temperature and 140° C., mainly in two steps): 17-18% |
| CNc1nccc(-c2cc3cc(C(=O)N[C@@H](CN(c4ccccc4)c4ncccn4)C(N)=O)ccc3[nH]2)n1 [Polymorph 1, 2-(2-methylamino-pyrimidin-4-yl)-1H-indole-5-carboxylic acid [(S)-1-carbamoyl-2-(phenyl-pyrimidin-2-yl-amino)-ethyl]-amide] | about 0.9% | 0.5%/0.5% | 0.5%/0.5% | 0.6%/0.6% | 0.6%/0.6% | 0.9%/0.9% | 0.9%/0.9% | 1.3 | 1.4 | 0.2 | – | Solubility [g in 100 g of solvent] ([1]; 36.9° C.): 0.43 g in 100 g of solvent; Solubility [g in 100 g of solvent] ([1]; 44.7° C.): 0.50 g in 100 g of solvent; Solubility [g in 100 g of solvent] ([1]; 60.0° C.): 0.85 g in 100 g of solvent; solubility in water (Solubility (qualitative)): low solubility in water; thermodynamic stability among the polymorphs ([3]; at temperatures above about 20° C., confirmed in phase conversion experiments): thermodynamically most stable polymorph; thermodynamic stability among polymorphs 1, 2 and hydrate 1 ([3]; maturation experiments (a) to (e) at 20° C.): thermodynamically most stable |
| CNc1nccc(-c2cc3cc(C(=O)N[C@@H](CN(c4ccccc4)c4ncccn4)C(N)=O)ccc3[nH]2)n1 [Hydrate 1, 2-(2-methylamino-pyrimidin-4-yl)-1H-indole-5-carboxylic acid [(S)-1-carbamoyl-2-(phenyl-pyrimidin-2-yl-amino)-ethyl]-amide dihydrate] | – | – | – | – | – | – | – | – | – | – | higher solubility than polymorph 1 | Solubility [g in 100 g of solvent] ([1]; 38.6° C.): 2.11 g in 100 g of solvent; Solubility [g in 100 g of solvent] ([1]; 49.7° C.): 3.39 g in 100 g of solvent; Solubility [g in 100 g of solvent] ([1]; 57.4° C.): 5.04 g in 100 g of solvent; hygroscopicity ([2]; qualitative statement): low hygroscopicity; TG weight loss (water) (Thermogravimetry (TG); between room temperature and 120° C.): 6.4% |
| CNc1nccc(-c2cc3cc(C(=O)N[C@@H](CN(c4ccccc4)c4ncccn4)C(N)=O)ccc3[nH]2)n1 [Polymorph 2, 2-(2-methylamino-pyrimidin-4-yl)-1H-indole-5-carboxylic acid [(S)-1-carbamoyl-2-(phenyl-pyrimidin-2-yl-amino)-ethyl]-amide] | about 0.4% | 0.2% | 0.0% | 0.3% | 0.1% | 0.4% | 0.3% | 0.8 | 0.6 | 0.7 | higher solubility than polymorph 1 | Solubility [g in 100 g of solvent] ([1]; 46.0° C.): 1.02 g in 100 g of solvent; Solubility [g in 100 g of solvent] ([1]; 57.5° C.): 2.48 g in 100 g of solvent |
